Columns and labels:
Chitinase B = target: T1, Chitinase B (Serratia marcescens, UniProt P11797); test: Binding affinity to Serratia marcescens chitinase B
T1 sequence (P11797 whole entry): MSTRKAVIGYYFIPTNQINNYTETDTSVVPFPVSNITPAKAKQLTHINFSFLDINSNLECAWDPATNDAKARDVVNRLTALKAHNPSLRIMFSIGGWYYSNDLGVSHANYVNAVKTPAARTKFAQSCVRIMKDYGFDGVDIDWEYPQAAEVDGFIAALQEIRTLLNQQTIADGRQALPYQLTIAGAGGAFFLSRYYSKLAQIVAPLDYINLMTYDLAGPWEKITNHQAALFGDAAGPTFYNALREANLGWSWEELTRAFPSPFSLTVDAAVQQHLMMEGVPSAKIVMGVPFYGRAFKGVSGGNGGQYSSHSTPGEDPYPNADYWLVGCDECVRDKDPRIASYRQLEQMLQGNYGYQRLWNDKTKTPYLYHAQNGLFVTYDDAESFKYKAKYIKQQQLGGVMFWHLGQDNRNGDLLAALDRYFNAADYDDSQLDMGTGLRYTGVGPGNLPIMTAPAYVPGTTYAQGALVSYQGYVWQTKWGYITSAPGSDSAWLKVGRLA

[1] = Inhibition of Lucilia cuprina chitinase B

SMILES: CC(=O)NC(=N)NCCC[C@@H]1NC(=O)[C@H](CCCC(=O)O)NC(=O)[C@H](Cc2c[nH]cn2)N2C(=O)[C@H](C[C@H]2O)NC(=O)[C@H]2CCCN2C1=O [ARGADIN]
- IC50 (Chitinase B): 3.4 nM
- Ki [1]: 20 nM

SMILES: CNC(=O)NC(=N)NCCC[C@@H]1NC(=O)[C@@H](C)NC(=O)C[C@@H](C(=O)O)NC(=O)C[C@@H](C(=O)O)NC(=O)[C@H](Cc2ccccc2)N(C)C1=O [ARGIFIN]
- IC50 (Chitinase B): 100 nM
- Ki [1]: 33000 nM
